Test results: US7910344B2, “Proteins having tyrosinase activity” (Valtion teknillinen tutkimuskeskus, priority 2005, dated 2011)
Like-named read-outs stand apart in the source and are kept apart here. One block for each compound: values may come before it.

What was measured:
TYR2 [1] = assay: Substrate specificity by oxygen consumption measurements, purified TYR2; type: biochemical, Trichoderma reesei
Experimental: (§1) pH optimum for the tyrosinase was studied by oxygen consumption measurements. Measurements were performed with a single channel oxygen meter (Precision sensing GmbH, Germany) containing fiber-optic oxygen minisensors with measurement range 0-100% oxygen. L-Dopa in 15 mM concentration, dissolved in 0.1 M sodium phosphate buffer, pH 7.0, was used as substrate. Reactions were carried out with 1.8 ml substrate solution and with 4.3 μg of the purified T. reesei tyrosinase. Three different buffers were used according to their buffer capacity. McIlvaine buffer was used within a pH range of 2-7, Tris-HCl buffer (50 mM) within a pH range 7-9 and borate buffer (12.5 mM) within a pH range of 8-9.5. […] In the measurements with Tris-HCl buffer in pH 8, 8.5 and 9.0 also a blank test without enzyme addition was performed to correct the effect of auto-oxidation in results.
(§2) Substrate specificity of the tyrosinase on various selected substrates was studied by oxygen consumption measurements. The concentration of substrates was 2.5 mM, and the compounds were dissolved in 0.1 M sodium phosphate buffer, pH 7.0. Reactions were carried out with 1.8 ml of 2.5 mM substrate solutions and with 24 μg of the purified TYR2. As a reference the substrate specificity assays were also determined for the commercial Agaricus bisporus crude tyrosinase (Sigma). Respectively, 50 μg of said mushroom tyrosinase was used in the assays. Activity of TYR2 and Agaricus tyrosinase were analyzed on selected model peptides containing tyrosine in different positions in the peptide chain (Table 5). Oxidation of L-/DL-D-Dopa and -tyrosine by TYR2 and Agaricus tyrosinase was also measured (Table 6).

[2] = tested on: Agaricus bisporus crude tyrosinase (Sigma); assay: Substrate specificity by oxygen consumption measurements, commercial Agaricus tyrosinase; type: biochemical; conditions: for Agaricus tyr Relative oxygen consumption (%): mono-phenols
Experimental: as §1, §2

Trichoderma reesei = assay: Plate test screening for tyrosinase activity from T. reesei; type: cell-based; conditions: T. reesei on Malt Extract agar with indicator
Experimental: The indicators for tyrosinase activity screening were selected according to literature. L-Tyrosine, p-cresol, p-coumaric acid, tyramine, 3-hydroxy antranilic acid, and catechin were used in concentrations shown in Table 1. Trichoderma reesei was grown on Malt Extract agar containing the selected indicators (Table 1) (Difco) at 37° C. for 48 days. Possible colour changes on the plates were observed visually.

TYR2 [3] = assay: Tyrosinase activity assay monitoring dopachrome formation at 475 nm; type: biochemical, Trichoderma reesei
Experimental: The activity was also measured on L-tyrosine (Sigma) in concentration of 2 mM. Both activity assays were carried out in 0.1 M sodium phosphate buffer (pH 7.0) at 25° C. monitoring dopachrome formation at 475 nm. The molar extinction coefficient ε 3400 M^−1 cm^−1 (Robb, 1984) was used. Measurements were carried out by using a two-beam spectrophotometer (Lambda 20, Perkin-Elmer, Über-lingen, Germany). Activities were expressed as nanokatals.
The result was also confirmed by determining the enzyme activity on L-Dopa and L-tyrosine by following oxygen consumption in enzymatic reaction. […] The effect of SDS (Sigma) on tyrosinase activity was measured using different concentrations of SDS in the activity assay.

[4] = L-/DL-/D-tyrosine, L-tyrosine = 100
[5] = mono-phenols, in relation to L-tyrosine, 2.5 mM substrate, pH 7.0, 24 μg TYR2
[6] = in relation to L-tyrosine, 2.5 mM substrate, pH 7.0, 50 μg mushroom tyrosinase
[7] = di- and tri-phenolic compounds, in relation to L-Dopa, 2.5 mM substrate, pH 7.0, 24 μg TYR2
[8] = di- and tri-phenolic compounds, in relation to L-Dopa, 2.5 mM substrate, pH 7.0, 50 μg mushroom tyrosinase
[9] = di-peptides, in relation to L-tyrosine, 2.5 mM substrate, pH 7.0

Compound: NC(Cc1ccc(O)c(O)c1)C(=O)O (racemic) [DL-dopa]
TYR2 Relative oxygen consumption (%) (TYR2 [1]; L-/DL-/D-dopa, L-dopa = 100): 46%
Agaricus tyrosinase Relative oxygen consumption (%) ([2]; L-/DL-/D-dopa, L-dopa = 100): 118%

Compound: NC(Cc1ccc(O)cc1)C(=O)O (racemic) [DL-tyrosine]
TYR2 Relative oxygen consumption (%) (TYR2 [1]; [4]): 40%
Agaricus tyrosinase Relative oxygen consumption (%) [2]: 102%

Compound: Nc1c(O)cccc1C(=O)O [3-Hydroxyanthranilic acid]
Reaction with indicator in plate test (Trichoderma reesei): clear positive reactions
TYR2 Relative oxygen consumption (%) (TYR2 [1]; [5]): 0%
Agaricus tyr Relative oxygen consumption (%) [2, 6]: 0%

Compound: Nc1ccc(O)cc1 [4-Aminophenol]
TYR2 Relative oxygen consumption (%) (TYR2 [1]; [5]): 8%
Agaricus tyr Relative oxygen consumption (%) [2, 6]: 9%

Compound: Oc1ccc(S)cc1 [4-Mercaptophenol]
TYR2 Relative oxygen consumption (%) (TYR2 [1]; [5]): 0%
Agaricus tyr Relative oxygen consumption (%) [2, 6]: 0%

Compound: Oc1cc(O)c2c(c1)O[C@H](c1ccc(O)c(O)c1)[C@@H](O)C2 [(+)-Catechin hydrate]
TYR2 Relative oxygen consumption (%) (TYR2 [1]; [7]): 220%
Agaricus tyrosinase Relative oxygen consumption (%) [2, 8]: 282%

Compound: Oc1cc(O)c2c(c1)O[C@H](c1ccc(O)c(O)c1)[C@H](O)C2 [(−)-Epicatechin]
TYR2 Relative oxygen consumption (%) (TYR2 [1]; [7]): 106%
Agaricus tyrosinase Relative oxygen consumption (%) [2, 8]: 286%

Compound: N[C@H](Cc1ccc(O)c(O)c1)C(=O)O [D-dopa]
TYR2 Relative oxygen consumption (%) (TYR2 [1]; L-/DL-/D-dopa, L-dopa = 100): 18%
Agaricus tyrosinase Relative oxygen consumption (%) ([2]; L-/DL-/D-dopa, L-dopa = 100): 106%

Compound: N[C@H](Cc1ccc(O)cc1)C(=O)O [D-tyrosine]
TYR2 Relative oxygen consumption (%) (TYR2 [1]; [4]): 7%
Agaricus tyrosinase Relative oxygen consumption (%) [2]: 61%

Compound: COc1cc(/C=C/C(=O)O)ccc1O [Ferulic acid]
TYR2 Relative oxygen consumption (%) (TYR2 [1]; [5]): 0%
Agaricus tyr Relative oxygen consumption (%) [2, 6]: 0%

Compound: N[C@@H](Cc1ccc(O)c(O)c1)C(=O)O [L-Dopa, L-3,4 dihydroxyphenylalanine]
Activity on L-Dopa compared with L-tyrosine (TYR2 [3]; 15 mM L-Dopa, 2 mM L-tyrosine, pH 7.0, 25° C.): approximately six times higher activity values than L-tyrosine
TYR2 Relative oxygen consumption (%) (TYR2 [1]; L-/DL-/D-dopa, L-dopa = 100): 100%
TYR2 Relative oxygen consumption (%) (TYR2 [1]; [7]): 100%
Agaricus tyrosinase Relative oxygen consumption (%) ([2]; L-/DL-/D-dopa, L-dopa = 100): 100%
Agaricus tyrosinase Relative oxygen consumption (%) [2, 8]: 100%

Compound: N[C@@H](Cc1ccc(O)cc1)C(=O)O [L-Tyrosine]
Reaction with indicator in plate test (Trichoderma reesei): clear positive reactions
TYR2 Relative oxygen consumption (%) (TYR2 [1]; [4]): 100%
TYR2 Relative oxygen consumption (%) (TYR2 [1]; [9]): 100%
TYR2 Relative oxygen consumption (%) (TYR2 [1]; [5]): 100%
Agaricus tyrosinase Relative oxygen consumption (%) [2]: 100%
Agaricus tyrosinase Relative oxygen consumption (%) [2, 9]: 100%
Agaricus tyr Relative oxygen consumption (%) [2, 6]: 100%

Compound: Oc1ccccc1 [Phenol]
TYR2 Relative oxygen consumption (%) (TYR2 [1]; [5]): 121%
Agaricus tyr Relative oxygen consumption (%) [2, 6]: 85%

Compound: Oc1ccccc1O [Pyrocatechol]
TYR2 Relative oxygen consumption (%) (TYR2 [1]; [7]): 88%
Agaricus tyrosinase Relative oxygen consumption (%) [2, 8]: 328%

Compound: Catechin
Reaction with indicator in plate test (Trichoderma reesei): clear positive reactions

More lines, main results first:

Agaricus tyrosinase Relative oxygen consumption (%) [2, 8]: 248%
Compound: Oc1cccc(O)c1O [Pyrogallol]
TYR2 Relative oxygen consumption (%) (TYR2 [1]; [7]): 55%

Tyrosinase activity left in presence of SDS (TYR2 [3]; 0.5 mM SDS in the activity assay): 50%
Compound: CCCCCCCCCCCCOS(=O)(=O)[O-].[Na+] [SDS, sodium dodecyl sulfate]

Reaction with indicator in plate test (Trichoderma reesei): clear positive reactions
Agaricus tyr Relative oxygen consumption (%) [2, 6]: 85%
Compound: NCCc1ccc(O)cc1 [Tyramine]
TYR2 Relative oxygen consumption (%) (TYR2 [1]; [5]): 42%

Agaricus tyr Relative oxygen consumption (%) [2, 6]: 0%
Compound: O=C(O)C=Cc1ccccc1O [o-Coumaric acid]
TYR2 Relative oxygen consumption (%) (TYR2 [1]; [5]): 0%

Agaricus tyr Relative oxygen consumption (%) [2, 6]: 0%
Compound: O=C(O)C=Cc1ccc(O)cc1 [p-Coumaric acid]
TYR2 Relative oxygen consumption (%) (TYR2 [1]; [5]): 390%

Agaricus tyr Relative oxygen consumption (%) [2, 6]: 104%
Compound: Cc1ccc(O)cc1 [p-Cresol]
TYR2 Relative oxygen consumption (%) (TYR2 [1]; [5]): 172%

Agaricus tyr Relative oxygen consumption (%) [2, 6]: 157%
Compound: OCCc1ccc(O)cc1 [p-Tyrosol]
TYR2 Relative oxygen consumption (%) (TYR2 [1]; [5]): 346%
